In patent US20240270762A1, “PENICILLIN-BINDING PROTEIN INHIBITORS” (priority 2021, published 2024) one finds MIC and IC50 data, which are given here for twelve compounds.

In brackets after ≈: the same amount, converted by molar mass. Read-outs that look alike come from different tables or passages of the source.

The subject of test [1] is N. gonorrhoeae ATCC 49226. The test is described as follows: Liquid broth MIC in Fastidious broth. To be noted: Neisseria gonorrhoeae.
Test [2] relates to A. baumannii CDC-0045. The test is described as follows: microbe, parasite or virus in culture. The format is cell-based. Conditions: Acinetobacter baumannii, CDC0045, read-out: MIC, A. baumannii CDC-0045.
Test [3] relates to P. aeruginosa CDC-0054. Kind of test: microbe, parasite or virus in culture. The format is cell-based. Conditions: Pseudomonas aeruginosa, CDC0054, read-out: Minimum inhibitory concentration, P. aeruginosa CDC-0054.
The test system of test [4] is A. baumannii ATCC 17978. The test is described as follows: microbe, parasite or virus in culture. The format is cell-based. Conditions: Acinetobacter baumannii, ATCC17978, read-out: MIC, A. baumannii ATCC 17978.
In test [5] the target is T1, PBP1a from Acinetobacter baumannii (ATCC 19606) (Acinetobacter baumannii, UniProt A0ABX6CK30).
T1 sequence (A0ABX6CK30 1-851): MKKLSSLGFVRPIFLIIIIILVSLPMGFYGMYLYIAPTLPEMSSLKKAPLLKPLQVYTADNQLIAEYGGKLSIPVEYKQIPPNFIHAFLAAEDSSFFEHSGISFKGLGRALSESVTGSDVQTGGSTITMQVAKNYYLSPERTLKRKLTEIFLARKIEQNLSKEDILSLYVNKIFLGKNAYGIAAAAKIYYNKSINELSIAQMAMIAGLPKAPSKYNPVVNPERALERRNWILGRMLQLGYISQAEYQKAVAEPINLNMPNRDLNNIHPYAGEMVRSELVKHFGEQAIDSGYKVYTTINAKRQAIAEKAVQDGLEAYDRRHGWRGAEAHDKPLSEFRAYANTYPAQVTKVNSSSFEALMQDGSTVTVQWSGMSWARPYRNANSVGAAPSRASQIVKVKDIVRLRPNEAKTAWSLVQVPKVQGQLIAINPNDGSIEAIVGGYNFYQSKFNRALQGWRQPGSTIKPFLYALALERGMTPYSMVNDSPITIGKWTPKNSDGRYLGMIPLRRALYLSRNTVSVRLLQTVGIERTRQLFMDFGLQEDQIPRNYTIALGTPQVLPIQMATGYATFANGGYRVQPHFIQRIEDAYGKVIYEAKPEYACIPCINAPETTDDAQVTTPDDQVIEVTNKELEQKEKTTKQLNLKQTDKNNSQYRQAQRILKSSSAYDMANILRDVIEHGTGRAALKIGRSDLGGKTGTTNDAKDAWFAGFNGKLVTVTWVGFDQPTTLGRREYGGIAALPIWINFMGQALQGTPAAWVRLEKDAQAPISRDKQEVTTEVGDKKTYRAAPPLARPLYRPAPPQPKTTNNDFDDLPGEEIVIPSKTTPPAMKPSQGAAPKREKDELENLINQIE
Kind of test: Bocillin-FL fluorescence polarization competition binding, A. baumannii PBP1a. To be noted: fluorescence polarization competition binding assay using Bocillin-FL; read-out: A. baumannii PBP1a Potency. An outline of the steps: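 Purified PBPs pre-incubated with inhibitor (E. coli PBP3 1.5 μM, 30 min; P. aeruginosa PBP3 0.75 μM, A. baumannii PBP1a 1 μM and PBP3 0.2 μM, 15 min), then Bocillin-FL 0.1 μM (0.05 μM for PBP1a) added; FP read up to 60 min. EC50 = concentration halving bound Bocillin-FL.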

The mark [6] stands for this setting: ATCC49226, read-out: Minimum Inhibitory Concentration (MIC), N. gonorrhoeae ATCC 49226.
Setting [7] is: ATCC49226, read-out: Minimum Inhibitory Concentration, ATCC 49226.

`O=C(NCCN1CCN(C(=O)NC(C(=O)N[C@H]2Cc3ccc(F)c(C(=O)O)c3OB2O)c2cc(F)c(O)c(O)c2Cl)C1=O)c1ccc(O)cc1` (stereo partly drawn) [Example 243, (3R)-3-(2-(2-chloro-5-fluoro-3,4-dihydroxyphenyl)-2-(3-(2-(4-hydroxybenzamido)ethyl)-2-oxoimidazolidine-1-carboxamido)acetamido)-7-fluoro-2-hydroxy-3,4-dihydro-2H-benzo[e][1,2]oxaborinine-8-carboxylic acid]: the MIC is 16 to 32 µg/mL (≈ 22.3 to 44.6 µM) in test [1] (setting [6]), < 1 µg/mL in test [2], 2 to 4 µg/mL (≈ 2.79 to 5.57 µM) in test [3] and < 1 µg/mL in test [4]. For the same compound, the IC50 in test [5] is > 250 µM.
For `O=C(NCCN1CCN(C(=O)NC(C(=O)N[C@H]2Cc3ccc(F)c(C(=O)O)c3OB2O)c2cc(F)c(O)c(O)c2Cl)C1=O)c1cccc(O)c1` (stereo partly drawn) [Example 244, (3R)-3-(2-(2-chloro-5-fluoro-3,4-dihydroxyphenyl)-2-(3-(2-(3-hydroxybenzamido)ethyl)-2-oxoimidazolidine-1-carboxamido)acetamido)-7-fluoro-2-hydroxy-3,4-dihydro-2H-benzo[e][1,2]oxaborinine-8-carboxylic acid], the MIC in test [1] (setting [6]) was > 64 µg/mL; in test [2], 2 to 4 µg/mL (≈ 2.79 to 5.57 µM); in test [3], 2 to 4 µg/mL (≈ 2.79 to 5.57 µM); in test [4], < 1 µg/mL. For the same compound, the IC50 in test [5] was > 250 µM.
`O=C(NCCN1CCN(C(=O)NC(C(=O)N[C@H]2Cc3ccc(F)c(C(=O)O)c3OB2O)c2cc(F)c(O)c(O)c2Cl)C1=O)c1ccncc1` (stereo partly drawn) [Example 245, (3R)-3-(2-(2-chloro-5-fluoro-3,4-dihydroxyphenyl)-2-(3-(2-(isonicotinamido)ethyl)-2-oxoimidazolidine-1-carboxamido)acetamido)-7-fluoro-2-hydroxy-3,4-dihydro-2H-benzo[e][1,2]oxaborinine-8-carboxylic acid]: the MIC in test [1] (setting [6]) was 16 to 32 µg/mL (≈ 22.8 to 45.5 µM); in test [2], < 1 µg/mL; in test [3] it was 2 to 4 µg/mL (≈ 2.85 to 5.69 µM); in test [4], < 1 µg/mL. Moreover, the IC50 in test [5] is > 250 µM.
Regarding `O=C(NCCN1CCN(C(=O)NC(C(=O)N[C@H]2Cc3ccc(F)c(C(=O)O)c3OB2O)c2cc(F)c(O)c(O)c2Cl)C1=O)c1cccnc1` (stereo partly drawn) [Example 246, (3R)-3-(2-(2-chloro-5-fluoro-3,4-dihydroxyphenyl)-2-(3-(2-(nicotinamido)ethyl)-2-oxoimidazolidine-1-carboxamido)acetamido)-7-fluoro-2-hydroxy-3,4-dihydro-2H-benzo[e][1,2]oxaborinine-8-carboxylic acid], the MIC in test [1] (setting [7]) was 16 to 32 µg/mL (≈ 22.8 to 45.5 µM); in test [2], < 1 µg/mL; in test [3], 2 to 4 µg/mL (≈ 2.85 to 5.69 µM); in test [4] it was < 1 µg/mL. For the same compound, in test [5], the IC50 was > 250 µM.
`O=C(NCCN1CCN(C(=O)NC(C(=O)N[C@H]2Cc3ccc(F)c(C(=O)O)c3OB2O)c2cc(F)c(O)c(O)c2Cl)C1=O)c1nccs1` (stereo partly drawn) [Example 247, (3R)-3-(2-(2-chloro-5-fluoro-3,4-dihydroxyphenyl)-2-(2-oxo-3-(2-(thiazole-2-carboxamido)ethyl)imidazolidine-1-carboxamido)acetamido)-7-fluoro-2-hydroxy-3,4-dihydro-2H-benzo[e][1,2]oxaborinine-8-carboxylic acid]: the MIC in test [1] (setting [7]) was 16 to 32 µg/mL (≈ 22.6 to 45.1 µM); in test [2] it was < 1 µg/mL; in test [3], 2 to 4 µg/mL (≈ 2.82 to 5.64 µM); in test [4], < 1 µg/mL. Moreover, the IC50 in test [5] was > 250 µM.
With `O=C(O)c1c(F)ccc2c1OB(O)[C@@H](NC(=O)C(NC(=O)N1CCN(CCNC(=O)[C@@H]3CCCN3)C1=O)c1cc(F)c(O)c(O)c1Cl)C2` (stereo partly drawn) [Example 248, (3R)-3-(2-(2-chloro-5-fluoro-3,4-dihydroxyphenyl)-2-(2-oxo-3-(2-((S)-pyrrolidine-2-carboxamido)ethyl)imidazolidine-1-carboxamido)acetamido)-7-fluoro-2-hydroxy-3,4-dihydro-2H-benzo[e][1,2]oxaborinine-8-carboxylic acid], the MIC in test [1] (setting [7]) was 16 to 32 µg/mL (≈ 23 to 46.1 µM); in test [2] it was < 1 µg/mL; in test [3], 2 to 4 µg/mL (≈ 2.88 to 5.76 µM); in test [4], < 1 µg/mL. The IC50 in test [5] was > 250 µM.
Turning to `O=C(NCCN1CCN(C(=O)NC(C(=O)N[C@H]2Cc3ccc(F)c(C(=O)O)c3OB2O)c2cc(F)c(O)c(O)c2Cl)C1=O)Nc1ccncc1` (stereo partly drawn) [Example 250, (3R)-3-(2-(2-chloro-5-fluoro-3,4-dihydroxyphenyl)-2-(2-oxo-3-(2-(3-(pyridin-4-yl)ureido)ethyl)imidazolidine-1-carboxamido)acetamido)-7-fluoro-2-hydroxy-3,4-dihydro-2H-benzo[e][1,2]oxaborinine-8-carboxylic acid], the MIC is > 64 µg/mL in test [1] (setting [7]), < 1 µg/mL in test [2], 8 to 16 µg/mL (≈ 11.1 to 22.3 µM) in test [3] and < 1 µg/mL in test [4]. In addition, the IC50 in test [5] was > 250 µM.
With `O=C(NCCN1CCN(C(=O)NC(C(=O)N[C@H]2Cc3ccc(F)c(C(=O)O)c3OB2O)c2cc(F)c(O)c(O)c2Cl)C1=O)Nc1cccnc1` (stereo partly drawn) [Example 251, (3R)-3-(2-(2-chloro-5-fluoro-3,4-dihydroxyphenyl)-2-(2-oxo-3-(2-(3-(pyridin-3-yl)ureido)ethyl)imidazolidine-1-carboxamido)acetamido)-7-fluoro-2-hydroxy-3,4-dihydro-2H-benzo[e][1,2]oxaborinine-8-carboxylic acid], the MIC in test [1] (setting [7]) is 16 to 32 µg/mL (≈ 22.3 to 44.6 µM); in test [2], < 1 µg/mL; in test [3] it was 8 to 16 µg/mL (≈ 11.1 to 22.3 µM); in test [4] it was < 1 µg/mL. In addition, in test [5], the IC50 is > 250 µM.
For `O=C(NCCCN1CCN(C(=O)N[C@H](C(=O)N[C@H]2Cc3ccc(F)c(C(=O)O)c3OB2O)c2cc(F)c(O)c(O)c2Cl)C1=O)c1ccccc1` [Example 252, (R)-3-((S)-2-(3-(3-benzamidopropyl)-2-oxoimidazolidine-1-carboxamido)-2-(2-chloro-5-fluoro-3,4-dihydroxyphenyl)acetamido)-7-fluoro-2-hydroxy-3,4-dihydro-2H-benzo[e][1,2]oxaborinine-8-carboxylic acid], the MIC was > 64 µg/mL in test [1] (setting [7]), > 128 µg/mL in test [2], > 128 µg/mL in test [3] and 8 to 16 µg/mL (≈ 11.2 to 22.4 µM) in test [4]. In addition, the IC50 in test [5] was > 250 µM.
`O=C(NCCCN1CCN(C(=O)N[C@@H](C(=O)N[C@H]2Cc3ccc(F)c(C(=O)O)c3OB2O)c2cc(F)c(O)c(O)c2Cl)C1=O)c1ccccc1` [Example 253, (R)-3-((R)-2-(3-(3-benzamidopropyl)-2-oxoimidazolidine-1-carboxamido)-2-(2-chloro-5-fluoro-3,4-dihydroxyphenyl)acetamido)-7-fluoro-2-hydroxy-3,4-dihydro-2H-benzo[e][1,2]oxaborinine-8-carboxylic acid]: the MIC was 16 to 32 µg/mL (≈ 22.4 to 44.7 µM) in test [1] (setting [7]), < 1 µg/mL in test [2], 8 to 16 µg/mL (≈ 11.2 to 22.4 µM) in test [3] and < 1 µg/mL in test [4]. Moreover, the IC50 in test [5] was > 250 µM.
Turning to `O=C(NCCCN1CCN(C(=O)N[C@H](C(=O)N[C@H]2Cc3ccc(F)c(C(=O)O)c3OB2O)c2cc(F)c(O)c(O)c2Cl)C1=O)c1cccc(O)c1` [Example 254, (R)-3-((S)-2-(2-chloro-5-fluoro-3,4-dihydroxyphenyl)-2-(3-(3-(3-hydroxybenzamido)propyl)-2-oxoimidazolidine-1-carboxamido)acetamido)-7-fluoro-2-hydroxy-3,4-dihydro-2H-benzo[e][1,2]oxaborinine-8-carboxylic acid], the MIC was > 64 µg/mL in test [1] (setting [7]), > 128 µg/mL in test [2], > 128 µg/mL in test [3] and 2 to 4 µg/mL (≈ 2.73 to 5.47 µM) in test [4]. In test [5], the IC50 is > 250 µM.
On to `O=C(NCCCN1CCN(C(=O)N[C@@H](C(=O)N[C@H]2Cc3ccc(F)c(C(=O)O)c3OB2O)c2cc(F)c(O)c(O)c2Cl)C1=O)c1cccc(O)c1` [Example 255, (R)-3-((R)-2-(2-chloro-5-fluoro-3,4-dihydroxyphenyl)-2-(3-(3-(3-hydroxybenzamido)propyl)-2-oxoimidazolidine-1-carboxamido)acetamido)-7-fluoro-2-hydroxy-3,4-dihydro-2H-benzo[e][1,2]oxaborinine-8-carboxylic acid], for which the MIC was 16 to 32 µg/mL (≈ 21.9 to 43.7 µM) in test [1] (setting [7]), < 1 µg/mL in test [2], < 1 µg/mL in test [3] and < 1 µg/mL in test [4]. Further, the IC50 in test [5] was > 250 µM.
